# Literature values, collected in patent publication US20220143119A1, “CROTON LECHLERI COMPOSITIONS FOR USE IN THE TREATMENT OF SKIN CANCER” (ALPHYN BIOLOGICS, LLC, priority 2019, published 2022).
# Tested on: human melanoma SK23
compound,measurement,value
COc1ccc2c(=O)oc3c(OC)cc(CCN(C)C)c4c(=O)oc1c2c34 [taspine],inhibition against human melanoma SK23,exhibits inhibition
